Results reported in PMC5804415, “Comparison of ^68Ga-DOTA-Siglec-9 and ^18F-Fluorodeoxyribose-Siglec-9: Inflammation Imaging and Radiation Dosimetry” (Contrast Media & Molecular Imaging, 2017).
Where two headings read alike, the source gives them in different places. Positions of bridges follow the written chain, without caps; N, C: chain ends. Residues, ends and D or L forms follow the SMILES beside them. *: point of attachment. X1 = O=C(CON=C[C@H](O)[C@H](O)[C@H](O)CF)*; AEEA = NCCOCCOCC(=O)O

Key:
[1] = system: rats with skin/muscle inflammation (turpentine oil); assay type: in vivo, rat
Method: Rats were divided into two groups with Group 1 being intravenously (i.v.) given ^68Ga-DOTA-Siglec-9 (16 ± 2.9 MBq, n = 8) and Group 2 ^18F-FDR-Siglec-9 (18 ± 5.1 MBq, n = 8). A 60 min dynamic PET acquisition was performed on a High Resolution Research Tomograph (HRRT; Siemens Medical Solutions, Knoxville, TN, USA). The PET data were reconstructed into 5 × 60 s and 11 × 300 s frames using an ordered-subsets expectation maximization 3D algorithm (OSEM3D). Quantitative PET image analysis was performed by defining regions of interest (ROIs) within the inflamed area (on the left foreleg), control area (on the right foreleg), kidneys, lungs, heart, liver, and urinary bladder using […] 2.8 software (Turku PET Centre). Results were expressed as standardized uptake values (SUV) and time-activity curves. SUV was calculated as a ratio of tissue radioactivity concentration (Bq/mL) and given radioactivity dose (Bq) divided by animal's body weight.

[2] = system: LDLR^−/−ApoB^100/100 atherosclerotic mice; experiment: PET/CT imaging of atherosclerotic mice; assay type: in vivo, mouse; settings: atherosclerotic LDLR^−/−ApoB^100/100 mice, 10–20 min after injection, mean ± SD, n = 2
Method: (§1) Six-month-old atherosclerotic low-density lipoprotein receptor-deficient mice (weight, 27 ± 4.1 g; n = 19) expressing only apolipoprotein B100 (LDLR^−/−ApoB^100/100, strain #003000; Jackson Laboratory, Bar Harbor, ME, USA) were fed for 4 months with a Western-type diet. Two-month-old C57BL/6N mice (weight, 24 ± 2.2 g; n = 13) fed with a regular chow served as controls.
A subset of mice (two atherosclerotic, two controls) were injected with 4.7 ± 1.1 MBq of ^18F-FDR-Siglec-9 and imaged with an Inveon Multimodality PET/CT (Siemens, Medical Solutions, Knoxville, TN, USA). Dynamic PET images were acquired for 60 min, followed by CT with a contrast agent (eXIATM160XL, Binitio Biomedical Inc., Ottawa, ON, Canada). The PET images were reconstructed with OSEM3D (frames 5 × 60 s, 3 × 300 s, 1 × 600 s, […]).
Quantitative PET image analysis was performed by defining ROIs in the heart left ventricle (blood pool) and aortic arch as identified on the basis of the CT angiography by using the Inveon Research Workplace software (Siemens Medical Solutions, Knoxville, TN, USA). Time frames 10–20 min after injection were used for PET quantification, as previously reported in the same mouse model using ^68Ga-DOTA-Siglec-9 [4]. The results within ROIs were expressed as SUV and target-to-background ratio (SUVmax,aortic arch/SUVmean,blood).

[3] = Ex vivo gamma counting biodistribution in control mice; settings: mouse, total radioactivity, C57BL/6N control mice (n = 13), 25 min after injection, mean ± SD
Method: as §1
In PET studies, mice (19 atherosclerotic, 13 controls) were injected with 14 ± 4.4 MBq of ^18F-FDR-Siglec-9. Twenty-five minutes after ^18F-FDR-Siglec-9 injection, blood was drawn by cardiac puncture and the animals were killed. The thoracic aorta was excised and rinsed in saline to remove the blood. In addition, various other tissues were excised and patted dry. Samples of blood and urine were collected, and blood plasma was separated by centrifugation. […] The results were expressed as % ID/g and target-to-background ratio.

[4] = system: atherosclerotic plaques in LDLR^−/−ApoB^100/100 mouse aorta; experiment: Autoradiography of aortic cryosections of atherosclerotic mice; assay type: in vivo; settings: LDLR^−/−ApoB^100/100 mice, n = 12, mean ± SD
Method: Autoradiography was used to study the distribution of radioactivity in the aorta in more detail, as described previously. After careful superimposition of the autoradiographs and H&E stained images, the count densities of 540 ROIs (185: plaques, 241: normal vessel walls, and 114: adventitia) were analyzed using Tina 2.1 software. The autoradiography results were calculated as the photostimulated luminescence per unit area (PSL/mm^2) normalized for injected radioactivity dose, and as ratios between the atherosclerotic plaque, normal vessel wall, and adventitia.

[5] = Ex vivo gamma counting biodistribution in rats with skin/muscle inflammation; settings: Sprague-Dawley, rat, iv, total radioactivity; for tissue uptake at 1 h: Ex vivo biodistribution, rats with skin/muscle inflammation, i.v., 60 min after injection, gamma counting, mean ± SD
From the text: (§2) Twenty-four hours before the PET studies, Sprague-Dawley rats (weight, 350 ± 22 g; n = 16) were subcutaneously injected with turpentine oil (Sigma-Aldrich) to induce focal acute, sterile inflammation [12]. Before the injection, rats were shaved on the both forelegs. Inflamed area on the left foreleg contained both skin and muscle. The intact, contralateral side (right foreleg) was used as a control.
(§3) After PET imaging, rats were sacrificed and various tissues were excised and weighed, and their radioactivity levels were measured with a gamma counter (1480 Wizard 3′′, PerkinElmer, Turku, Finland). The ex vivo biodistribution results were expressed as a percentage of the injected radioactivity dose per gram of tissue (% ID/g) and target-to-background ratio.

[6] = system: rats with skin/muscle inflammation (turpentine oil); experiment: as above; settings: rats with skin/muscle inflammation, 60 min after injection, mean ± SD
From the text: as §2, §3

[7] = Sprague-Dawley rats, turpentine oil skin/muscle inflammation, i.v., dynamic PET 10–60 min, mean ± SD, SD

CC(C)C[C@@H]1NC(=O)CNC(=O)[C@H](CCCNC(=N)N)NC(=O)[C@H](Cc2c[nH]c3ccccc23)NC(=O)[C@H](CO)NC(=O)[C@H](CC(C)C)NC(=O)[C@H](CO)NC(=O)[C@H](CC(C)C)NC(=O)[C@H](CCCNC(=N)N)NC(=O)[C@H](C)NC(=O)[C@@H](NC(=O)COCCOCCNC(=O)CON=C[C@H](O)[C@H](O)[C@H](O)CF)CSSC[C@@H](C(=O)N2CCC[C@H]2C(=O)N[C@@H](CO)C(=O)N[C@@H](CCCCN)C(=O)O)NC(=O)[C@H](CC(C)C)NC(=O)[C@H]([C@@H](C)O)NC1=O [^18F-FDR-Siglec-9] ({X1-AEEA}-CARLSLSWRGLTLCPSK-OH; disulfide 1-14; N-terminus and C-terminus assumed)
SUVmean,10–60 min in the inflamed area ([1]; Sprague-Dawley rats, turpentine oil skin/muscle inflammation, i.v., dynamic PET 10–60 min, mean ± SD, n = 5 (68Ga) or 8 (18F), SD): 0.77 ± 0.22 | SUVmax,10–60 min in the inflamed area [1, 7]: 1.1 ± 0.097 | inflammation-to-blood ratio 10–60 min (PET) [1, 7]: 1.7 ± 0.51 | time of peak uptake in the inflamed area after the i.v. bolus injection ([1]; rat, in vivo, iv): about 10 min | target-to-background ratio (SUVmax,aortic arch/SUVmean,blood) [2]: 1.6 ± 0.078 | tissue uptake at 25 min ([3]; adipose tissue, BAT, 14 MBq, read-out: Ex vivo biodistribution, Adipose tissue, BAT): 0.45 ± 0.13 %ID/g | tissue uptake at 25 min ([3]; adipose tissue, WAT, 14 MBq, read-out: Ex vivo biodistribution, Adipose tissue, WAT): 0.63 ± 0.37 %ID/g | tissue uptake at 25 min ([3]; aorta, 14 MBq, read-out: Ex vivo biodistribution, Aorta): 0.52 ± 0.23 %ID/g | tissue uptake at 25 min ([3]; blood, 14 MBq, read-out: Ex vivo biodistribution, Blood): 2.1 ± 0.59 %ID/g | tissue uptake at 25 min ([3]; brain, 14 MBq, read-out: Ex vivo biodistribution, Brain): 0.11 ± 0.048 %ID/g | tissue uptake at 25 min ([3]; heart, 14 MBq, read-out: Ex vivo biodistribution, Heart): 0.34 ± 0.082 %ID/g | tissue uptake at 25 min ([3]; kidney, 14 MBq, read-out: Ex vivo biodistribution, Kidney): 43 ± 25 %ID/g | tissue uptake at 25 min ([3]; liver, read-out: Ex vivo biodistribution, Liver): 3.5 ± 2.3 %ID/g | tissue uptake at 25 min ([3]; lungs, read-out: Ex vivo biodistribution, Lungs): 1.5 ± 0.45 %ID/g | tissue uptake at 25 min ([3]; muscle, read-out: Ex vivo biodistribution, Muscle): 0.43 ± 0.13 %ID/g | tissue uptake at 25 min ([3]; pancreas, read-out: Ex vivo biodistribution, Pancreas): 0.57 ± 0.18 %ID/g | tissue uptake at 25 min ([3]; plasma, read-out: Ex vivo biodistribution, Plasma): 3.8 ± 0.62 %ID/g | tissue uptake at 25 min ([3]; small intestine, read-out: Ex vivo biodistribution, Small intestine): 0.79 ± 0.29 %ID/g | tissue uptake at 25 min ([3]; spleen, read-out: Ex vivo biodistribution, Spleen): 0.62 ± 0.32 %ID/g | tissue uptake at 25 min ([3]; thymus, 14 MBq, read-out: Ex vivo biodistribution, Thymus): 0.43 ± 0.089 %ID/g | excreta dose per gram or mL at 25 min ([3]; urine, 14 MBq): 610 ± 340 %ID/g | plaque-to-adventitia ratio [4]: 2.2 ± 0.53 | plaque-to-healthy vessel wall ratio [4]: 1.9 ± 0.23 | tissue uptake at 1 h ([5]; adipose tissue, BAT, Adipose tissue, BAT): 0.049 ± 0.019 %ID/g | tissue uptake at 1 h ([5]; adipose tissue, WAT, Adipose tissue, WAT): 0.017 ± 0.0041 %ID/g | tissue uptake at 1 h ([5]; blood, Blood): 0.12 ± 0.023 %ID/g | tissue uptake at 1 h ([5]; bone (femoral), Bone (femoral)): 0.017 ± 0.01 %ID/g | tissue uptake at 1 h ([5]; bone marrow, Bone marrow): 0.056 ± 0.011 %ID/g | tissue uptake at 1 h ([5]; brain, Brain): 0.01 ± 0.003 %ID/g | tissue uptake at 1 h ([5]; control area (intact right foreleg), Control area): 0.11 ± 0.056 %ID/g | tissue uptake at 1 h ([5]; heart, Heart): 0.048 ± 0.01 %ID/g | tissue uptake at 1 h ([5]; inflamed area (left foreleg, skin and muscle), Inflamed area): 0.19 ± 0.053 %ID/g | tissue uptake at 1 h ([5]; kidneys, Kidneys): 14 ± 9.9 %ID/g | tissue uptake at 1 h ([5]; liver, Liver): 0.68 ± 0.12 %ID/g | tissue uptake at 1 h ([5]; lungs, Lungs): 0.11 ± 0.028 %ID/g | tissue uptake at 1 h ([5]; muscle, Muscle): 0.021 ± 0.0067 %ID/g | tissue uptake at 1 h ([5]; pancreas, Pancreas): 0.048 ± 0.011 %ID/g | tissue uptake at 1 h ([5]; plasma, Plasma): 0.23 ± 0.087 %ID/g | tissue uptake at 1 h ([5]; small intestine, Small intestine): 0.091 ± 0.029 %ID/g | tissue uptake at 1 h ([5]; spleen, Spleen): 0.06 ± 0.012 %ID/g | excreta dose per gram or mL at 1 h ([5]; urine, SD): 23 ± 14 %ID/g | tissue uptake at 1 h ([5]; male, testis, Testis): 0.046 ± 0.022 %ID/g | inflamed-to-control area ratio (ex vivo gamma counting) [6]: 2.0 ± 0.70 | inflammation-to-blood ratio (ex vivo gamma counting) [6]: 1.3 ± 0.16
